# Measurements taken from US20120028929A1, “TETRACYCLINE STABILIZING FORMULATIONS” (ALACRITY BIOSCIENCE, INC., priority 2008, published 2012).
# Where “and” joins values, the source holds several entries; their conditions need not be identical. Equal values may be shown once.
# Experiments:
# [1] = Combinatorial effect of antioxidants and tonicity adjustment agents in doxycycline stability; type: physicochemical; details: for doxycycline stability 5 Wks / doxycycline stability 8 Wks / doxycycline stability 12 Wks / doxycycline stability 2 Wks / doxycycline stability Init.: HPMC
# Description: (§1) Standard methods known in the art are used for monitoring the degradation of tetracycline into its epimers or degradation products. For example, one method for monitoring tetracycline degradation is an analytical technique using chromatography, e.g. high pressure liquid chromatography (HPLC), to separate the various degradants, e.g. epimers and other degradants, and a sensitive detector to identify and quantify the concentrations of the drug and degradants over time.
# [2] = Multi-dimensional parametric testing of doxycycline stability in aqueous solution; type: physicochemical; details: for doxycycline stability t = 0 / doxycycline stability 2 wks / doxycycline stability 4 wks: 250 μg/mL; for degradation: 2 weeks
# Description: as §1
# A multi-dimensional parametric test on doxycycline stability was conducted to study the effect of pH, storage temperature and the presence of various chemical agents.
# [3] = type: physicochemical
# Description: The rate of doxycycline epimerization increased with temperature and time (see Table 7). […] Long-term storage (more than 18 months) should therefore be at refrigeration temperatures (2-8° C.) to minimize conversion of doxycycline to its epimers.
# After 12 months of storage at 5° C., about 0.0014% w/w of the doxycycline in solution was lost to degradation. That is, original doxycyline concentration was 0.025% w/w and concentration after 12 months was 0.0236% w/w, corresponding to 94.4% Label Claim (LC).
# The epimerization of doxycycline into 4-epidoxycycline is reversible, and the rate of 4-epidoxycycline formation is related to the kinetic equilibrium between the two compounds. Therefore, one method for specifically reducing the rate of doxycycline epimerization into 4-epidoxycycline is to fortify the formulation with 4-epidoxycycline.
# [4] = Edetate Disodium 0.1%, Sodium Metabisulfite 0.1%, Sodium Thiosulfate 0.2%, Glycerin (167 mOsm/kg), 5° C.
# [5] = Edetate Disodium 0.1%, Sodium Metabisulfite 0.1%, Sodium Thiosulfate 0.2%, Glycerin (167 mOsm/kg), 25° C.
# [6] = Edetate Disodium 0.2%, Sodium Metabisulfite 0.2%, Sodium Thiosulfate 0.3%, Glycerin (287 mOsm/kg), 5° C.
# [7] = Edetate Disodium 0.2%, Sodium Metabisulfite 0.2%, Sodium Thiosulfate 0.3%, Glycerin (287 mOsm/kg), 25° C.
# [8] = Edetate Disodium 0.2%, Sodium Metabisulfite 0.2%, Sodium Thiosulfate 0.3%, Glycerin (287 mOsm/kg), 40° C.
# [9] = Edetate Disodium 0.2%, Sodium Metabisulfite 0.2%, Sodium Thiosulfate 0.3%, NaCl (330 mOsm/kg), 5° C.
# [10] = Disodium Edetate, pH 5.3, 5° C.
# [11] = Disodium Edetate, pH 5.3, 25° C.
# [12] = Sodium Metabisulfite, pH 5.3, 5° C.
# [13] = Sodium Metabisulfite, pH 5.3, 25° C.
# [14] = Sodium Thiosulfate, pH 5.3, 5° C.
# [15] = Sodium Thiosulfate, pH 5.3, 25° C.
compound,measurement,setting,value
C[C@H]1c2cccc(O)c2C(=O)C2=C(O)[C@]3(O)C(=O)C(C(N)=O)=C(O)[C@@H](N(C)C)[C@@H]3[C@@H](O)[C@@H]21 [doxycycline],degradation,"[1]; 0.025% w/w doxycycline, edetate, metabisulfite, thiosulfate, phosphate-citrate buffer, glycerin, pH 5.2-5.8, 12 weeks at 5° C.",no detectable degradation
same,doxycycline stability 5 Wks,[1]; [4],102.8%
same,doxycycline stability 8 Wks,[1]; [4],100.6%
same,doxycycline stability 12 Wks,[1]; [4],99.4%
same,doxycycline stability 5 Wks,[1]; [5],97.0%
same,doxycycline stability 8 Wks,[1]; [5],90.4%
same,doxycycline stability 12 Wks,[1]; [5],85.1%
same,doxycycline stability 5 Wks,"[1]; Edetate Disodium 0.1%, Sodium Metabisulfite 0.1%, Sodium Thiosulfate 0.2%, Glycerin (167 mOsm/kg), 40° C.",58.2%
same,doxycycline stability 5 Wks,"[1]; Edetate Disodium 0.1%, Sodium Metabisulfite 0.1%, Sodium Thiosulfate 0.2%, NaCl (325 mOsm/kg), 5° C.",103.6%
same,doxycycline stability 5 Wks,"[1]; Edetate Disodium 0.1%, Sodium Metabisulfite 0.1%, Sodium Thiosulfate 0.2%, NaCl (325 mOsm/kg), 25° C.",96.6%
same,doxycycline stability 5 Wks,"[1]; Edetate Disodium 0.1%, Sodium Metabisulfite 0.1%, Sodium Thiosulfate 0.2%, NaCl (325 mOsm/kg), 40° C.",55.8%
same,doxycycline stability 5 Wks,"[1]; Edetate Disodium 0.1%, Sodium Metabisulfite 0.1%, Glycerin (138 mOsm/kg), 5° C.",94.6%
same,doxycycline stability 5 Wks,"[1]; Edetate Disodium 0.1%, Sodium Metabisulfite 0.1%, Glycerin (138 mOsm/kg), 25° C.",84.9%
same,doxycycline stability 5 Wks,"[1]; Edetate Disodium 0.1%, Sodium Metabisulfite 0.1%, Glycerin (138 mOsm/kg), 40° C.",47.1%
same,doxycycline stability 5 Wks,"[1]; Edetate Disodium 0.1%, Sodium Metabisulfite 0.1%, NaCl (305 mOsm/kg), 5° C.",90.6%
same,doxycycline stability 5 Wks,"[1]; Edetate Disodium 0.1%, Sodium Metabisulfite 0.1%, NaCl (305 mOsm/kg), 25° C.",81.8%
same,doxycycline stability 5 Wks,"[1]; Edetate Disodium 0.1%, Sodium Metabisulfite 0.1%, NaCl (305 mOsm/kg), 40° C.",46.5%
same,doxycycline stability 2 Wks,[1]; [6],103.0%
same,doxycycline stability 5 Wks,[1]; [6],101.2%
same,doxycycline stability 8 Wks,[1]; [6],100.6%
same,doxycycline stability 12 Wks,[1]; [6],100.4%
same,doxycycline stability Init.,[1]; [6],103.2%
same,doxycycline stability 2 Wks,[1]; [7],101.0%
same,doxycycline stability 5 Wks,[1]; [7],93.3%
same,doxycycline stability 8 Wks,[1]; [7],85.2%
same,doxycycline stability 12 Wks,[1]; [7],84.8%
same,doxycycline stability 2 Wks,[1]; [8],80.3%
same,doxycycline stability 5 Wks,[1]; [8],55.1%
same,doxycycline stability 2 Wks,[1]; [9],103.0%
same,doxycycline stability Init.,[1]; [9],103.4%
same,doxycycline stability 2 Wks,"[1]; Edetate Disodium 0.2%, Sodium Metabisulfite 0.2%, Sodium Thiosulfate 0.3%, NaCl (330 mOsm/kg), 25° C.",100.6%
same,doxycycline stability 2 Wks,"[1]; Edetate Disodium 0.2%, Sodium Metabisulfite 0.2%, Sodium Thiosulfate 0.3%, NaCl (330 mOsm/kg), 40° C.",79.9%
same,doxycycline stability t = 0,"[2]; Disodium Edetate, pH 5.3",100%
same,doxycycline stability 2 wks,[2]; [10],99%
same,doxycycline stability 4 wks,[2]; [10],96%
same,doxycycline stability 2 wks,[2]; [11],97%
same,doxycycline stability 4 wks,[2]; [11],88%
same,doxycycline stability 2 wks,"[2]; Disodium Edetate, pH 5.3, 40° C.",24%
same,doxycycline stability t = 0,"[2]; Disodium Edetate, pH 7",100%
same,doxycycline stability 2 wks,"[2]; Disodium Edetate, pH 7, 5° C.",96%
same,doxycycline stability 2 wks,"[2]; Disodium Edetate, pH 7, 25° C.",55%
same,doxycycline stability 2 wks,"[2]; Disodium Edetate, pH 7, 40° C.",4%
same,doxycycline stability t = 0,"[2]; None (no antioxidant/chelating agent), pH 5.3",100%
same,doxycycline stability 2 wks,"[2]; None, pH 5.3, 5° C.",96%
same,doxycycline stability 4 wks,"[2]; None, pH 5.3, 5° C.",93%
same,doxycycline stability 2 wks,"[2]; None, pH 5.3, 25° C.",73%
same,doxycycline stability 4 wks,"[2]; None, pH 5.3, 25° C.",59%
same,doxycycline stability 2 wks,"[2]; None, pH 5.3, 40° C.",19%
same,doxycycline stability t = 0,"[2]; None, pH 7",100%
same,doxycycline stability 2 wks,"[2]; None, pH 7, 5° C.",94%
same,doxycycline stability 2 wks,"[2]; None, pH 7, 25° C.",49%
same,doxycycline stability 2 wks,"[2]; None, pH 7, 40° C.",11%
same,doxycycline stability t = 0,"[2]; Sodium Bisulfite, pH 5.3",100%
same,doxycycline stability 2 wks,"[2]; Sodium Bisulfite, pH 5.3, 5° C.",88%
same,doxycycline stability 2 wks,"[2]; Sodium Bisulfite, pH 5.3, 25° C.",72%
same,doxycycline stability 2 wks,"[2]; Sodium Bisulfite, pH 5.3, 40° C.",57%
same,doxycycline stability t = 0,"[2]; Sodium Bisulfite, pH 7",100%
same,doxycycline stability 2 wks,"[2]; Sodium Bisulfite, pH 7, 5° C.",91%
same,doxycycline stability 2 wks,"[2]; Sodium Bisulfite, pH 7, 25° C.",83%
same,doxycycline stability 2 wks,"[2]; Sodium Bisulfite, pH 7, 40° C.",48%
same,doxycycline stability t = 0,"[2]; Sodium Metabisulfite, pH 5.3",100%
same,doxycycline stability 2 wks,[2]; [12],99%
same,doxycycline stability 4 wks,[2]; [12],97%
same,doxycycline stability 2 wks,[2]; [13],92%
same,doxycycline stability 4 wks,[2]; [13],90%
same,doxycycline stability 2 wks,"[2]; Sodium Metabisulfite, pH 5.3, 40° C.",59%
same,doxycycline stability t = 0,"[2]; Sodium Metabisulfite, pH 7",100%
same,doxycycline stability 2 wks,"[2]; Sodium Metabisulfite, pH 7, 5° C.",97%
same,doxycycline stability 2 wks,"[2]; Sodium Metabisulfite, pH 7, 25° C.",86%
same,doxycycline stability 2 wks,"[2]; Sodium Metabisulfite, pH 7, 40° C.",51%
same,doxycycline stability t = 0,"[2]; Sodium Thiosulfate, pH 5.3",100%
same,doxycycline stability 2 wks,[2]; [14],99%
same,doxycycline stability 4 wks,[2]; [14],99%
same,doxycycline stability 2 wks,[2]; [15],95%
same,doxycycline stability 4 wks,[2]; [15],93%
same,doxycycline stability 2 wks,"[2]; Sodium Thiosulfate, pH 5.3, 40° C.",67%
same,doxycycline stability t = 0,"[2]; Sodium Thiosulfate, pH 7",100%
same,doxycycline stability 2 wks,"[2]; Sodium Thiosulfate, pH 7, 5° C.",96%
same,doxycycline stability 2 wks,"[2]; Sodium Thiosulfate, pH 7, 25° C.",91%
same,doxycycline stability 2 wks,"[2]; Sodium Thiosulfate, pH 7, 40° C.",7%
same,doxycycline stability t = 0,"[2]; Thiourea, pH 5.3",100%
same,doxycycline stability 2 wks,"[2]; Thiourea, pH 5.3, 5° C.",98%
same,doxycycline stability 2 wks,"[2]; Thiourea, pH 5.3, 25° C.",80%
same,doxycycline stability 2 wks,"[2]; Thiourea, pH 5.3, 40° C.",22%
same,doxycycline stability t = 0,"[2]; Thiourea, pH 7",100%
same,doxycycline stability 2 wks,"[2]; Thiourea, pH 7, 5° C.",98%
same,doxycycline stability 2 wks,"[2]; Thiourea, pH 7, 25° C.",74%
same,doxycycline stability 2 wks,"[2]; Thiourea, pH 7, 40° C.",9%
same,degradation,"[2]; aqueous solution, neutral pH, 5° C., no additive",6%
same,degradation,"[2]; aqueous solution, neutral pH, room temperature (RT), no additive",51%
same,degradation,"[2]; aqueous solution, neutral pH, room temperature (RT), no additive, listed as doxcycline",about 51%
same,degradation,"[2]; pH 5.3, RT, addition of edetate disodium",3%
same,degradation,"[2]; pH 5.3, RT, addition of sodium bisulfate",28%
same,degradation,"[2]; pH 5.3, RT, addition of sodium metabisulfite",8%
same,degradation,"[2]; pH 5.3, RT, addition of sodium thiosulfate",5%
same,degradation,"[2]; pH 5.3, RT, addition of thiourea",20%
same,degradation,"[2]; pH 5.3, RT, no additive",28% and 27%
same,effect of fortifying with 4-epidoxycycline on degradation,[3],reduced degradation of doxycycline during storage
same,share of degradation by epimerization into 4-epidoxycycline,[3],over half of the degradation
same,doxycycline in solution lost to degradation,"[3]; 12 months, 0.025 % w/w",about 0.0014 % w/w
same,route of doxycycline degradation,"[3]; 12 months, 0.025 % w/w",practically all of the degradation of doxycycline at 5 °C was through conversion into 4-epidoxycycline
